Test results: US11731976B2, “3-(ethoxydifluoromethyl)-6-(5-fluoro-6-(2,2,2-trifluoroethoxy)pyridin-3-yl)-[1,2,4]triazolo[4,3-a]pyridine as an ion channel modulator” (Praxis Precision Medicines, Inc., priority 2018, dated 2023)

The compounds below were run against T1, human NaV1.6 (hNaV1.6) (Homo sapiens, UniProt Q9UQD0) (assay: Modulation of late sodium current (INaL), PatchXpress electrophysiology, HEK-293 cells expressing hNaV1.6). Conditions: HEK293, late current evoked by 300 nM ATX-II, read-out: NaV 1.6 Assay Data: percent inhibition of INaL at hNaV1.6.
T1 construct: expressed in transfected cells; host or cells: HEK-293
T1 sequence (Q9UQD0 whole entry): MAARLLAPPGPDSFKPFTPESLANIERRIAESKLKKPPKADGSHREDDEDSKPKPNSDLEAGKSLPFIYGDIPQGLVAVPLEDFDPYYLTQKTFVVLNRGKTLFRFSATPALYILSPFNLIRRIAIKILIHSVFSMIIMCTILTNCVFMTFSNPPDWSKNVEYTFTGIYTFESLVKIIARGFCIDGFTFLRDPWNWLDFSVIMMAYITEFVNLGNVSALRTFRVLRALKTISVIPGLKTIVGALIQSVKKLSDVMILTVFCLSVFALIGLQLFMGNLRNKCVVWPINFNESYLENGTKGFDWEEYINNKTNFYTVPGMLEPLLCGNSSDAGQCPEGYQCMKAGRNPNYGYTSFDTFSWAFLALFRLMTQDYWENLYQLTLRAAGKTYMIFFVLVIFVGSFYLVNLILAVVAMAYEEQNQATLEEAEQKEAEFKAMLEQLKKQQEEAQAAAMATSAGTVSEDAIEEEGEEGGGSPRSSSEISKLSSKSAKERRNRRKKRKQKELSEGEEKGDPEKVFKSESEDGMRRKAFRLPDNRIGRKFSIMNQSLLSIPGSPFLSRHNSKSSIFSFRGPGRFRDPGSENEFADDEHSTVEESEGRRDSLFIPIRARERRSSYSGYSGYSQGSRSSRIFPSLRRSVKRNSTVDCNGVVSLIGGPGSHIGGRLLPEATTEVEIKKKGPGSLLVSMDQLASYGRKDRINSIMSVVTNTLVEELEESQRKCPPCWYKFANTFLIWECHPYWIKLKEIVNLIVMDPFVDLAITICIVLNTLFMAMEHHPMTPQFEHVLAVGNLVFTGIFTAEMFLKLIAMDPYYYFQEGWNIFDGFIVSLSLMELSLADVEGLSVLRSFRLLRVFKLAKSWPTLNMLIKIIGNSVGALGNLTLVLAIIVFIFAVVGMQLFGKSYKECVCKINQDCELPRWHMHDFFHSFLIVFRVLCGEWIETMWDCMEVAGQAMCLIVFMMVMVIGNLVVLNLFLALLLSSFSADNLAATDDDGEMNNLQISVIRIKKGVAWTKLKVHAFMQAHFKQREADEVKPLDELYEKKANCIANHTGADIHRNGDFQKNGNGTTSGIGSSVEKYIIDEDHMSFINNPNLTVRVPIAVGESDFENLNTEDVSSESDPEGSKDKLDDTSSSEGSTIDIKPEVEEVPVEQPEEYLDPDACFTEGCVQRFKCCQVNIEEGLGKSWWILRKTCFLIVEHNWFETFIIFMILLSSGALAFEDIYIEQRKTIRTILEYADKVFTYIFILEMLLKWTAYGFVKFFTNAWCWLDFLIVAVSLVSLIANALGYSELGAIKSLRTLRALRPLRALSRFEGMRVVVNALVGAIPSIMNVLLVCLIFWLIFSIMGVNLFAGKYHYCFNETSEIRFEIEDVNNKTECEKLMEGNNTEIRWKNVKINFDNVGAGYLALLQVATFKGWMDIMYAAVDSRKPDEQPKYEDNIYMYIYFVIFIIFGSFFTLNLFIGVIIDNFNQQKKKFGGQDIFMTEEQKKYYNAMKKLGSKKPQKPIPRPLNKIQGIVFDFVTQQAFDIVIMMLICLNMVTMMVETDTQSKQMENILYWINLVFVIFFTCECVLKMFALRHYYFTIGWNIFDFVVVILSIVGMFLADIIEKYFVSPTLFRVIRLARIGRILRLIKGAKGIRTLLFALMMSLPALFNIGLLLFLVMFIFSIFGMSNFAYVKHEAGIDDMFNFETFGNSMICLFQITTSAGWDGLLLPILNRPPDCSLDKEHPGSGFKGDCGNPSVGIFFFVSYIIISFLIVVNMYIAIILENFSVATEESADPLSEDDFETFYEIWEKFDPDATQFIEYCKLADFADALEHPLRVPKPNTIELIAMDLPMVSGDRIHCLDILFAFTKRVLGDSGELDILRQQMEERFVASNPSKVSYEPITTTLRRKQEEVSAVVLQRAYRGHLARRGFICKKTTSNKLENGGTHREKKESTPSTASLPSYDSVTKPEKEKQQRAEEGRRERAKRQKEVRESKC
Format: cell-based
Method: Functional characterization of exemplary compounds to modulate INaL expressed by the NaV1.6 voltage-gated sodium channel was accomplished using the PatchXpress™ high throughput electrophysiology platform (Molecular Devices, Sunnyvale, Calif.). HEK-293 cells expressing recombinant, human NaV1.6 (hNaV1.6) were grown in DMEM/high-glucose Dulbecco's modified, 10% FBS, 2 mM sodium pyruvate, 10 mM HEPES and 400 μg/mL G418. Cells were grown to 50%-80% confluency prior to harvesting. Trypsinized cells were washed, allowed to recover for 1 hour and then resuspended in extracellular recording solution at a concentration of 1×10^6 cells/ml. The onboard liquid handling facility of the PatchXpress was used for dispensing cells and applying test compounds. NaV late currents were evoked by the application of 300 nM ATX-II. INaL was evoked by depolarizing pulses to 0 mV for 200 ms from a non-inactivating holding potential (e.g., −120 mV) at a frequency of 0.1 Hz. INaL amplitude and stability were determined by analyzing the mean current amplitude over the final 20 ms of the test pulse. Following steady state block with exemplary compounds (e.g., as described herein), a Na+ free solution containing an impermeant cation (e.g., Choline or NDMG) was added to confirm the identify of the sodium current. Percent steady-state inhibition of INaL was calculated as: [(INaL_compound)/(INaL_control)]*100, where INaL_compound and INaL_control represent INaL recorded in the presence or absence of compound, respectively.

Compound | inhibition at 1 µM [%]
COCc1nnc2ccc(-c3cnc(OC(C)(C)C(F)(F)F)c(F)c3)cn12 [Compound 28, 6-[5-fluoro-6-(2,2,2-trifluoro-1,1-dimethyl-ethoxy)-3-pyridyl]-3-(methoxymethyl)-[1,2,4]triazolo[4,3-a]pyridine] | > 70
CCOC(F)(F)c1nnc2cnc(-c3ccc(OC(C)(C)C(F)(F)F)nc3)cn12 [Compound 88, 3-(ethoxydifluoromethyl)-6-(6-((1,1,1-trifluoro-2-methylpropan-2-yl)oxy)pyridin-3-yl)-[1,2,4]triazolo[4,3-a]pyrazine] | > 70
COCc1nnc2cnc(-c3cnc(OCC(F)(F)F)c(F)c3)cn12 [Compound 39, 6-[5-fluoro-6-(2,2,2-trifluoroethoxy)-3-pyridyl]-3-(methoxymethyl)-[1,2,4]triazolo[4,3-a]pyrazine] | < 30
COCc1nnc2ccc(-c3cnc(O[C@@H](C)C(F)(F)F)c(F)c3)nn12 [Compound 44, 6-[5-fluoro-6-[(1S)-2,2,2-trifluoro-1-methyl-ethoxy]-3-pyridyl]-3-(methoxymethyl)-[1,2,4]triazolo[4,3-b]pyridazine] | 30 to 70
CCOC(F)(F)c1nnc2ccc(-c3cnc(OC4CC(F)(F)C4)c(F)c3)cn12 [Compound 85, 6-(6-(3,3-difluorocyclobutoxy)-5-fluoropyridin-3-yl)-3-(ethoxydifluoromethyl)-[1,2,4]triazolo[4,3-a]pyridine] | > 70
COCc1nnc2ccc(-c3cnc(O[C@@H](C)C(F)(F)F)c(F)c3)cn12 [Compound 43, 6-[5-fluoro-6-[(1S)-2,2,2-trifluoro-1-methyl-ethoxy]-3-pyridyl]-3-(methoxymethyl)-[1,2,4]triazolo[4,3-a]pyridine] | 30 to 70
COC(F)(F)c1nnc2cnc(-c3ccc(OC4CC(F)(F)C4)nc3)cn12 [Compound 73, 3-(difluoro(methoxy)methyl)-6-(6-(3,3-difluorocyclobutoxy)pyridin-3-yl)-[1,2,4]triazolo[4,3-a]pyrazine] | > 70
COCc1nnc2ccc(-c3cnc(OC(C)(C)C(F)(F)F)c(F)c3)nn12 [Compound 27, 6-[5-fluoro-6-(2,2,2-trifluoro-1,1-dimethyl-ethoxy)-3-pyridyl]-3-(methoxymethyl)-[1,2,4]triazolo[4,3-b]pyridazine] | > 70
COCc1nnc2cc(C)c(-c3cnc(OC(C)(C)C(F)(F)F)c(F)c3)nn12 [Compound 69, 6-[5-fluoro-6-(2,2,2-trifluoro-1,1-dimethyl-ethoxy)-3-pyridyl]-3-(methoxymethyl)-7-methyl-[1,2,4]triazolo[4,3-b]pyridazine] | 30 to 70
COC(F)(F)c1nnc2ccc(-c3cnc(OC4(C(F)(F)F)CCC4)c(F)c3)cn12 [Compound 18, 3-[difluoro(methoxy)methyl]-6-[5-fluoro-6-[1-(trifluoromethyl)cyclobutoxy]-3-pyridyl]-[1,2,4]triazolo[4,3-a]pyridine] | > 70
COCc1nnc2ccc(-c3cnc(OCC(F)(F)F)c(F)c3)nn12 [Compound 35, 6-[5-fluoro-6-(2,2,2-trifluoroethoxy)-3-pyridyl]-3-(methoxymethyl)-[1,2,4]triazolo[4,3-b]pyridazine] | < 30
COCc1nnc2ccc(-c3ccc(OC(C)(C)C(F)(F)F)nc3)cn12 [Compound 87, 3-(methoxymethyl)-6-(6-((1,1,1-trifluoro-2-methylpropan-2-yl)oxy)pyridin-3-yl)-[1,2,4]triazolo[4,3-a]pyridine] | 30 to 70

More lines, now with the values ahead:

inhibition at 1 µM [%] | Compound
> 70 | Fc1cc(-c2ccc3nnc(C(F)(F)OCC4CC4)n3n2)cnc1OCC(F)(F)F [Compound 14, 3-[cyclopropylmethoxy(difluoro)methyl]-6-[5-fluoro-6-(2,2,2-trifluoroethoxy)-3-pyridyl]-[1,2,4]triazolo[4,3-b]pyridazine]
> 70 | COC(F)(F)c1nnc2ccc(-c3cnc(O[C@@H](C)C(F)(F)F)c(F)c3)cn12 [Compound 7, 3-[difluoro(methoxy)methyl]-6-[5-fluoro-6-[(1S)-2,2,2-trifluoro-1-methyl-ethoxy]-3-pyridyl]-[1,2,4]triazolo[4,3-a]pyridine]
> 70 | CCOC(F)(F)c1nnc2cnc(-c3ccc(OCC(F)(F)F)nc3)cn12 [Compound 81, 3-(ethoxydifluoromethyl)-6-(6-(2,2,2-trifluoroethoxy)pyridin-3-yl)-[1,2,4]triazolo[4,3-a]pyrazine]
> 70 | C[C@@H](Oc1ncc(-c2ccc3nnc(C(F)(F)OCC4CC4)n3c2)cc1F)C(F)(F)F [Compound 25, 3-[cyclopropylmethoxy(difluoro)methyl]-6-[5-fluoro-6-[(1R)-2,2,2-trifluoro-1-methyl-ethoxy]-3-pyridyl]-[1,2,4]triazolo[4,3-a]pyridine]
> 70 | CCOC(F)(F)c1nnc2cnc(-c3cnc(O[C@@H](C)C(F)(F)F)c(F)c3)cn12 [Compound 33, 3-[ethoxy(difluoro)methyl]-6-[5-fluoro-6-[(1S)-2,2,2-trifluoro-1-methyl-ethoxy]-3-pyridyl]-[1,2,4]triazolo[4,3-a]pyrazine]
> 70 | CCOCc1nnc2cnc(-c3cnc(O[C@@H](C)C(F)(F)F)c(F)c3)cn12 [Compound 50, 3-(ethoxymethyl)-6-[5-fluoro-6-[(1S)-2,2,2-trifluoro-1-methyl-ethoxy]-3-pyridyl]-[1,2,4]triazolo[4,3-a]pyrazine]
> 70 | C[C@H](Oc1ncc(-c2cn3c(C(F)(F)OC4CC4)nnc3cn2)cc1F)C(F)(F)F [Compound 63, 3-[cyclopropoxy(difluoro)methyl]-6-[5-fluoro-6-[(1S)-2,2,2-trifluoro-1-methyl-ethoxy]-3-pyridyl]-[1,2,4]triazolo[4,3-a]pyrazine]
30 to 70 | COCCOC(F)(F)c1nnc2cnc(-c3ccc(OCC(F)(F)F)nc3)cn12 [Compound 89]
> 70 | CCOC(F)(F)c1nnc2ccc(-c3cnc(O[C@@H](C)C(F)(F)F)c(F)c3)nn12 [Compound 41, 3-[ethoxy(difluoro)methyl]-6-[5-fluoro-6-[(1S)-2,2,2-trifluoro-1-methyl-ethoxy]-3-pyridyl]-[1,2,4]triazolo[4,3-b]pyridazine]
> 70 | COC(F)(F)c1nnc2ccc(-c3cnc(OC(C)(C)C(F)(F)F)c(F)c3)cn12 [Compound 24, 3-[difluoro(methoxy)methyl]-6-[5-fluoro-6-(2,2,2-trifluoro-1,1-dimethyl-ethoxy)-3-pyridyl]-[1,2,4]triazolo[4,3-a]pyridine]
30 to 70 | CCOCc1nnc2cnc(-c3cnc(O[C@H](C)C(F)(F)F)c(F)c3)cn12 [Compound 52, 3-(ethoxymethyl)-6-[5-fluoro-6-[(1R)-2,2,2-trifluoro-1-methyl-ethoxy]-3-pyridyl]-[1,2,4]triazolo[4,3-a]pyrazine]
